Test results as given in publication PMC4314249, “Characterizing the Peroxisome Proliferator-Activated Receptor (PPARγ) Ligand Binding Potential of Several Major Flame Retardants, Their Metabolites, and Chemical Mixtures in House Dust” (Environmental Health Perspectives, 2014).
Read-outs that look alike come from different tables or passages of the source.

Columns and labels:
[1] = target: T1, human PPARγ ligand-binding domain (Homo sapiens, UniProt P37231); test: PolarScreen PPARγ-Competitor fluorescence polarization ligand binding assay
T1 construct: The kit uses the human-derived recombinant PPARγ LBD tagged with an N-terminal GST-tag; purchased Invitrogen
T1 sequence (P37231 238-503 limits assumed): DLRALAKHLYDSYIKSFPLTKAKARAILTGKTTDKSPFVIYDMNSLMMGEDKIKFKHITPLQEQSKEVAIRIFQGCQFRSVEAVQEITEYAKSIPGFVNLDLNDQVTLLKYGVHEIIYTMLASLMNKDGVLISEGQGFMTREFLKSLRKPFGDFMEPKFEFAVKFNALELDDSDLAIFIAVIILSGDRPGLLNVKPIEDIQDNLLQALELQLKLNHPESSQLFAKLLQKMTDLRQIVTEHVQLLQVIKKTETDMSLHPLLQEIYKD

[2] = MEHP formation on incubation of dust with S9 fraction; type: in vitro ADME, Sprague-Dawley rats
Experimental: Bioactivation of dust samples. We assessed the influence of biotransformation on ligand binding activity by incubating dust extracts in pooled liver S9 fractions prepared from Sprague-Dawley rats [Rat (Sprague-Dawley) S9 Fractions; Gibco, Grand Island, NY). Bioactivation was assessed in 7 of the 23 dust samples (1 dust sample was tested in triplicate, while the others were tested once because of dust mass limitations) and in SRM 2585 (n = 3). The 7 dust samples were from groups A (samples 5, 7, and 8), B (samples 9 and 10), and C (samples 11 and 12). The influence of biotransformation was also investigated using pure chemical standards. DEHP (100 μM) and a mixture (MIX) containing 1 μM each of FM550, isopropylated triaryl phosphate (ITP), BDE-47, BDE-99, and DEHP were evaluated for binding activity before and after bioactivation. For a detailed description of the method, see Supplemental Material, “Bioactivation of Dust Samples” and Figure S3. Briefly, dust samples were bioactivated by incubation with an S9 fraction (1 mg protein/mL), extracted, and cleaned by dextran-assisted liquid–liquid extraction and phenolic extraction. […]
For each dose level of tested compounds, triplicate samples were prepared and each well was read five times in the plate reader. […]

PPARγ2 = tested on: PPARγ2; parameters: method as in Suzuki et al. (2013); conditions: U2OS reporter assay; ref Suzuki et al. (2013); cited from earlier work
PPARγ LBD = target: T2, PPARγ LBD (Homo sapiens, UniProt P37231); test: PPARγ competitive binding after bioactivation with rat liver S9 fraction (active vs inactive S9); conditions: 100 μM, n = 3, rat liver S9
T2 construct: The kit uses the human-derived recombinant PPARγ LBD tagged with an N-terminal GST-tag; purchased Invitrogen
T2 sequence (P37231 238-503 limits assumed): T1 sequence (P37231 238-503 limits assumed)

[3] = read-out: Kd (dissociation constant)
[4] = calculated from IC50 by equation 3, read-out: Kd (dissociation constant)

## Oc1cc(Cl)ccc1Oc1ccc(Cl)cc1Cl [Triclosan, triclosan]
[1]
  IC50: 12.5 µM
  Kd: 6.52 µM
  Relative potency: 0.0184

## Oc1cc(Oc2cc(Br)c(Br)cc2Br)c(Br)cc1Br [5´-OH-BDE-99]
[1]
  Relative potency: 0.0077
[1]; read-out: IC50
  IC50: 30 µM
[1]; [3]
  Kd: 15.7 µM

## Oc1c(I)cc(I)cc1I [2,4,6-TIP, 2,4,6-triiodophenol]
[1]
  IC50: 1.84 µM
  Kd: 0.96 µM
  Relative potency: 0.1250

## CCCCC(CC)COC(=O)c1c(Br)c(Br)c(Br)c(Br)c1C(=O)OCC(CC)CCCC (centres unmarked) [TBPH, bis(2-ethylhexyl) tetrabromophthalate]
[1]
  IC50: > 250 µM
  Kd: > 130 µM
  PPARγ binding (in words): did not show any binding activity

## Oc1c(Br)cc(Br)cc1Br [2,4,6-TBP, 2,4,6-Tribromophenol]
[1]
  IC50: 36.3 µM
  Kd: 18.9 µM
  Relative potency: 0.0063

## CC(C)(c1ccc(O)cc1)c1ccc(O)cc1 [BPA, bisphenol A]
[1]
  PPARγ binding (in words): did not exhibit any binding
[1]; read-out: IC50
  IC50: > 250 µM
[1]; [3]
  Kd: > 130 µM

## Oc1cc(Br)cc(Br)c1Oc1ccc(Br)cc1Br [6-OH-BDE-47]
[1]
  PPARγ binding (in words): not active ligands
  Relative potency: < 0.023
[1]; read-out: IC50
  IC50: > 10 µM
[1]; [3]
  Kd: > 5.22 µM

## CCCCC(CC)COC(=O)c1cc(Br)c(Br)c(Br)c1Br (centres unmarked) [TBB, 2-ethylhexyl-2,3,4,5-tetrabromobenzoate]
[1]
  IC50: > 250 µM
  Kd: > 130 µM
  PPARγ binding (in words): did not show any binding activity

## Oc1c(Br)ccc(Oc2ccc(Br)cc2Br)c1Br [3-OH-BDE-47]
[1]
  Relative potency: 0.9583
[1]; read-out: IC50
  IC50: 0.24 µM
[1]; [3]
  Kd: 0.13 µM

## Oc1c(Cl)cc(Cl)cc1Cl [2,4,6-TCP, 2,4,6,-trichlorophenol]
[1]
  Relative potency: 0.0023
[1]; read-out: IC50
  IC50: 100 µM
[1]; [3]
  Kd: 52.2 µM

## Oc1cc(Oc2ccc(Br)cc2Br)c(Br)cc1Br [5-OH-BDE-47]
[1]
  Relative potency: 0.0744
[1]; read-out: IC50
  IC50: 3.09 µM
[1]; [3]
  Kd: 1.61 µM

## CCCCC(CC)COC(=O)c1ccccc1C(=O)O (centres unmarked) [MEHP, mono(2-ethylhexyl) phthalate]
[2]
  MEHP formation rate: approximately 70 pmol/mg protein/min

## Oc1c(F)cc(F)cc1F [2,4,6-TFP, 2,4,6-trifluorophenol]
[1]; [4]
  Kd: > 130 µM
[1]; read-out: IC50
  IC50: > 250 µM

## CCCCOCCOP(=O)(OCCOCCCC)OCCOCCCC [TBEP, tris(2-butoxyethyl) phosphate]
[1]
  IC50: 103 µM
  Kd: 53.7 µM
  Relative potency: 0.0022

## [Cl][Sn]([c]1ccccc1)([c]1ccccc1)[c]1ccccc1 [TPT, triphenyltin chloride]
[1]
  Relative potency: 0.1337
[1]; read-out: IC50
  IC50: 1.72 µM
[1]; [3]
  Kd: 0.9 µM

## Brc1ccc(Oc2ccc(Br)cc2Br)c(Br)c1 [BDE-47, 2,2´,4,4´-tetrabromodiphenyl ether]
[1]; read-out: IC50
  IC50: > 12 µM
[1]; [3]
  Kd: > 6.25 µM
PPARγ2
  5% induction concentration: 10 µM

## Oc1cc(Br)cc(Br)c1Oc1cc(Br)c(Br)cc1Br [6´-OH-BDE-99]
[1]
  PPARγ binding (in words): not active ligands
  Relative potency: < 0.0046
[1]; read-out: IC50
  IC50: > 50 µM
[1]; [3]
  Kd: > 26.1 µM

## O=P(Oc1ccccc1)(Oc1ccccc1)Oc1ccccc1 [TPP, triphenyl phosphate]
[1]
  IC50: 40 µM
  Kd: 20.9 µM
  Relative potency: 0.0058

## O=P(O)(Oc1ccccc1)Oc1ccccc1 [DPP, diphenyl phosphate]
[1]
  IC50: 627 µM
  Kd: 327 µM
  Relative potency: 0.0004

## Brc1ccc(Oc2cc(Br)c(Br)cc2Br)c(Br)c1 [BDE–99, 2,2´,4,4´,5-pentabromodiphenyl ether]
[1]
  PPARγ binding (in words): no binding was observed
[1]; read-out: IC50
  IC50: > 250 µM
[1]; [3]
  Kd: > 130 µM

## O=C(O)c1cc(Br)c(Br)c(Br)c1Br [TBBA, 2,3,4,5-tetrabromo benzoic acid]
[1]
  IC50: 42 µM
  Kd: 22.1 µM
  Relative potency: 0.0055

## CCCCC(CC)COC(=O)c1ccccc1C(=O)OCC(CC)CCCC (centres unmarked) [DEHP, di-(2-ethylhexyl) phthalate]
[1]; [4]
  Kd: > 130 µM
[1]; read-out: IC50
  IC50: > 250 µM
PPARγ LBD
  change of PPARγ binding potency after bioactivation (in words): slightly increased

## CC(C)(c1cc(Cl)c(O)c(Cl)c1)c1cc(Cl)c(O)c(Cl)c1 [TCBPA, 3,3´,5,5´-tetrachlorobisphenol A]
[1]
  Relative potency: 0.0444
[1]; read-out: IC50
  IC50: 5.18 µM
[1]; [3]
  Kd: 2.7 µM
